Consider five compounds from patent EP4768489A1, “CYCLOBUTYL-CONTAINING COMPOUNDS” (Chia Tai Tianqing Pharmaceutical Group Co., Ltd., priority 2023, dated 2025).

Residue numbers refer to the chain shown, from its start. Where only a bound is given, the exact number is not on record here.

Series [1] in a line: In vitro liver microsome stability, human. The format is in vitro ADME. As to conditions: human liver microsomes 0.5 mg/mL, 37 °C, NADPH. As to the method:
Liver microsome incubation samples were prepared by mixing a PBS buffer (pH 7.4), a liver microsome solution (0.5 mg/mL), a test compound, and an NADPH + MgCl2 solution, followed by incubation at 37 °C and 300 rpm for 1 h. Zero-hour samples were prepared by mixing a PBS buffer (pH 7.4), a liver microsome solution (0.5 mg/mL), and a test compound. […]

Series [2] concerns the target T1, AR in MDA-PCA-2B (L702H\T878A) cells (Homo sapiens, UniProt P10275, L702H/T878A).
T1 construct: Assay on degradation activity for AR in MDA-PCA-2B (L702H\T878A) cells; endogenous in cells; host or cells: MDA-PCA-2B cells
T1 sequence (P10275 1-920 L702H/T878A): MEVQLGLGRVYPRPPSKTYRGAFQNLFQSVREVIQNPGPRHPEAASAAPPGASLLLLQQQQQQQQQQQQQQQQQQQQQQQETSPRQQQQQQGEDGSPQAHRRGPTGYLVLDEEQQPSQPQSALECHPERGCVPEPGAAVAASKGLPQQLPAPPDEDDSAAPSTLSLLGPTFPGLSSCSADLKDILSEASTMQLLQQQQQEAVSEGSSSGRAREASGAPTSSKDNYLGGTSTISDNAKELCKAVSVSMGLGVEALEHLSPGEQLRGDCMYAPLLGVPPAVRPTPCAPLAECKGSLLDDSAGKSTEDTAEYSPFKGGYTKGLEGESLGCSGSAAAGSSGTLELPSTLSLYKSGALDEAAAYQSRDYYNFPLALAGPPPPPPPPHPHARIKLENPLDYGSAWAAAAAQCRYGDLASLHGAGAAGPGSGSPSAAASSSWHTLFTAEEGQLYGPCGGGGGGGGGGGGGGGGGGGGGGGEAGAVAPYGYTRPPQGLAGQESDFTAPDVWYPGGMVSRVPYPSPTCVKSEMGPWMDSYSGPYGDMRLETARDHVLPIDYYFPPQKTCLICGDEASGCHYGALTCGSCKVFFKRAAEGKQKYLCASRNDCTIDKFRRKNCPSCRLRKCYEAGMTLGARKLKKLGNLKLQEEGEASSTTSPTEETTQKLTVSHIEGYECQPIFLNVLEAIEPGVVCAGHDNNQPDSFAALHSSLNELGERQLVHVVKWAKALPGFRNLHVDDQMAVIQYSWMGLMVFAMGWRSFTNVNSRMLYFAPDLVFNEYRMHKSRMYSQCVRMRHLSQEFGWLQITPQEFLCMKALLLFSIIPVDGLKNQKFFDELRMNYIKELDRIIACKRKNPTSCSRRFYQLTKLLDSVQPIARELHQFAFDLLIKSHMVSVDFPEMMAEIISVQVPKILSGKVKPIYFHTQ
The series can be described thus: Assay on degradation activity for AR in MDA-PCA-2B (L702H\T878A) cells (HTRF). The format is cell-based. As to conditions: 24 h; for DC50: AR degradation; for Dmax: maximum degradation rate. As to the method:
(§1) The detection was carried out using the HTRF HUMAN ANDROGEN RECEPTOR DETECTION KIT (cisbio, 64ANDRPEG), 4× Supplemented Lysis buffer was prepared using the Blocking reagent stock solution (100×) and Lysis buffer stock solution (4×), and 1× Supplemented Lysis buffer was prepared using the 4× Supplemented Lysis buffer and ddH2O. Premixed antibody solutions were prepared using Detection buffer, Androgen Receptor Eu Cryptate antibody, and Androgen Receptor d2 antibody.
The cells were cultured overnight in a cell incubator. […] After the cells were oscillated for 40 min at room temperature, 16 µL of the cell lysis buffer was added to a 384-well plate, the Premixed antibody solutions were added at 4 µL/well, and the mixture was left to stand at 25 °C for 2 h. […]

The subject of series [3] is MDA-PCA-2B (L702H\T878A) cells. The series can be described thus: Assay on inhibitory activity for MDA-PCA-2B (L702H\T878A) cell proliferation (CCK-8). The format is cell-based. As to conditions: 168 h. From the text: Table 7. Inhibitory activity of compounds for MDA-PCA-2B (L702H\T878A) cell proliferation
The next series deals with LNCaP (T878A) cells. As to the kind of experiment: cells. The note with it: Homo sapiens, 168 h.
The target of series [4] is T2, AR in LNCaP (T878A) cells (Homo sapiens, UniProt P10275, T878A).
T2 construct: Assay on degradation activity for AR in LNCaP (T878A) cells; endogenous in cells; host or cells: LNCaP cells
T2 sequence (P10275 1-920 T878A): T1 sequence (P10275 1-920 L702H/T878A) with H702L
The series can be described thus: Assay on degradation activity for AR in LNCaP (T878A) cells (HTRF). The format is cell-based. The note with it: maximum degradation rate, 24 h. As to the method: as §1
The cells were cultured overnight in a cell incubator. […] After the cells were oscillated for 40 min at room temperature, 16 µL of the cell lysis buffer was added to a 384-well plate, the Premixed antibody solutions were added at 4 µL/well, and the mixture was left to stand at 25 °C for 2 h. […] Table 2. Degradation activity of compounds for AR in LNCaP (T878A) cells

Regarding `COc1cc(O[C@H]2C(C)(C)[C@H](NC(=O)c3ccc(N4CCC(CN5CCc6c(ccc7c(C8CCC(=O)NC8=O)noc67)C5)CC4)cc3)C2(C)C)ccc1C#N` (stereo partly shown) [Compound 1], the “HLM (human) Remaining amount at 60 min %” value in series [1] is given as over 70%. In series [2], this compound displayed a DC50 of under 500 nM. The Dmax was over 70% in series [2] and over 90% in series [4]. Further, the figures for the half-maximal inhibitory concentration (IC50) (in series [3]; with LNCaP (T878A) cells) were under 500 nM and under 50 nM, respectively.
Turning to `COc1cc(O[C@H]2C(C)(C)[C@H](NC(=O)c3ccc(N4CCC(CN5CCc6c(ccc7c(C8CCC(=O)NC8=O)noc67)C5)CC4)nc3)C2(C)C)ccc1C#N` (stereo partly shown) [Compound 3], the “HLM (human) Remaining amount at 60 min %” value in series [1] is on record as over 70%. In addition, the DC50 in series [2] was under 500 nM. The Dmax in series [2] is over 70%; in series [4], over 90%. Further, the values for the IC50 (in series [3]; in the series with LNCaP (T878A) cells) were under 500 nM and under 50 nM, respectively.
As for `COc1cc(O[C@H]2C(C)(C)[C@H](NC(=O)c3cnc(N4CCC(CN5CCc6c(ccc7c(C8CCC(=O)NC8=O)noc67)C5)CC4)nc3)C2(C)C)ccc1C#N` (stereo partly shown) [Compound 4], the “HLM (human) Remaining amount at 60 min %” value in series [1] is recorded as over 70%. The same compound had a DC50 in series [2] of under 500 nM. In addition, the Dmax in series [2] was over 70%; in series [4], over 90%. For the same compound, the figures for the IC50 (in series [3]; in the series with LNCaP (T878A) cells) were under 500 nM and under 50 nM, respectively.
Regarding `COc1cc(O[C@H]2C(C)(C)[C@H](NC(=O)c3cnc(N4CCC(CN5CCc6c(ccc7c(C8CCC(=O)NC8=O)noc67)C5)CC4)cn3)C2(C)C)ccc1C#N` (stereo partly shown) [Compound 5], the “HLM (human) Remaining amount at 60 min %” value in series [1] is reported as over 70%. The DC50 in series [2] was under 500 nM. The Dmax in series [2] was over 70%; in series [4], over 90%. For the same compound, the values for the IC50 (in series [3]; in the series with LNCaP (T878A) cells) were under 500 nM and under 50 nM, respectively.
As to `COc1cc(O[C@H]2C(C)(C)[C@H](NC(=O)c3ccc(N4CCC(CN5CCc6c(ccc7c(C8CCC(=O)NC8=O)noc67)C5)CC4)nn3)C2(C)C)ccc1C#N` (stereo partly shown) [Compound 6], the DC50 in series [2] was under 500 nM. Also, the Dmax in series [2] was over 70%; in series [4], over 90%. The IC50 with LNCaP (T878A) cells was under 50 nM.
